Assays:
[1] = biological target: T1, SIK1 (Homo sapiens, UniProt P57059); assay: ADP-Glo kinase assay, SIK1; assay type: biochemical; conditions: ADP-Glo SIK kinase assay
T1 construct: purchased Carna Biosciences 02-131
How it was run: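 ADP-Glo, RT throughout. Enz/substrate + ATP, 120 min; ADP-Glo reagent 40 min (ATP depletion); detection reagent 30 min; luminescence read. Neg ctrl 1% DMSO, pos ctrl 10 μM staurosporine, final concs.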

[2] = test system: LPS-induced TNFα in monocyte-derived macrophages (MdM); assay: MdM assay: LPS-triggered TNFα (ELISA); assay type: cell-based, human; conditions: Homo sapiens, Macrophage, 20 h, monocyte-derived macrophages, LPS 200 ng/mL, supernatant after 20 h; read-out: TNFα EC50
How it was run: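 Compound added 1 h before LPS (200 ng/mL final) to day-10 macrophages derived from magnetically isolated CD14+ human blood monocytes, DMSO held at 0.2%. TNFα secreted over 20 h of stimulation quantified by ELISA against a standard curve.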

[3] = biological target: T2, SIK3 (Homo sapiens, UniProt Q9Y2K2); assay: ADP-Glo kinase assay, SIK3; assay type: biochemical; conditions: ADP-Glo SIK kinase assay
T2 construct: purchased SignalChem S12-11G-100
How it was run: (§1)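 Wells with 1% DMSO or 10 μM staurosporine (final) define the control window. The kinase reaction with substrate and ATP runs 120 min at RT, followed by ADP-Glo detection: ATP depletion (40 min) and ADP-derived luminescence (30 min).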

[4] = test system: IL-10; assay: Mouse LPS-induced endotoxic shock, plasma IL-10; assay type: in vivo; design: key: +: statistically significant induction of IL-10; −: no effect on the level of IL-10; conditions: 3 mg/kg, p.o.; plasma 90 min after LPS challenge
Procedure: (§2) Injection of lipopolysaccharide (LPS) induces a rapid release of soluble tumour necrosis factor (TNFα) into the periphery. This model was used to assess prospective blockers of TNFα release in vivo.
(§3) Lipopolysaccharide (LPS) from Escherichia Coli serotype O111:B4 was obtained from Sigma Aldrich (Cat #L2630).
(§4) BALB/cAnNCrl mice (female, 18-20 g body weight) were obtained from Charles River (Calco, Italy). Mice were kept on a 12 h light/dark cycle. Temperature was maintained at 22±2° C., food and water were provided ad libitum.
(§5) Mice were dosed once by oral (p.o.) or subcutaneous (sc) route with the tested compound in the appropriate vehicle.
(§6) At the Tmax of compound, 100 μg of LPS (in H2O) was injected intraperitoneally to mice. A control group was included which comprises administering the vehicle without an LPS challenge.
(§7) Mice were sacrificed 90 min after LPS challenge and blood was collected in heparinised tubes. Plasma was obtained by centrifugation for 15 min, 2000×g at +4° C. and frozen at −80° C. before cytokine analysis.
(§8) TNFα and IL-10 were quantified in plasma by AlphaLISA detection kits obtained from PerkinElmer (Massachusetts, USA), Cat4 AL505C and AL502C, respectively.
(§9) Statistics were performed with Prism 5.03 software (GraphPad) using an ANOVA analysis of variance with Dunnett's post-hoc test versus LPS group.
(§10) Active compounds were defined as showing a statistically significant decrease in TNFα with or without a statistically significant induction of IL-10

[5] = test system: TNFα; assay: Mouse LPS-induced endotoxic shock, plasma TNFα; assay type: in vivo; design: key: +: statistically significant inhibition of TNFα; −: no effect on the level of TNFα; conditions: 3 mg/kg, p.o.; plasma 90 min after LPS challenge
Procedure: as §2, §3, §4, §5, §6, §7, §8, §9, §10

[6] = biological target: T3, SIK2 (Homo sapiens, UniProt Q9H0K1); assay: ADP-Glo kinase assay, SIK2; assay type: biochemical; conditions: ADP-Glo SIK kinase assay
T3 construct: purchased ThermoFisher Scientific PV4792
How it was run: as §1

[7] = test system: LPS triggered IL-10 secretion in monocytes; assay: Monocytes assay: LPS-triggered IL-10 (ELISA); assay type: cell-based, human; conditions: LPS 200 ng/mL, supernatant after 4 h, maximal fold change vs LPS only
How it was run: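 Human CD14+ monocytes, magnetically isolated from buffy-coat PBMCs, were seeded at 100 000 cells/well and preincubated with compound for 1 h at 37° C (0.2% DMSO). LPS was then added at a final 200 ng/mL for 4 h. Supernatant IL-10 was quantified by chemiluminescent sandwich ELISA against a standard curve.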

[8] = test system: LPS-induced TNFα in monocytes; assay: Monocytes assay: LPS-triggered TNFα (ELISA); assay type: cell-based, human; conditions: Homo sapiens, Monocyte, LPS 200 ng/mL, supernatant after 4 h
How it was run: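 Supernatant TNFα was quantified by luminol-based sandwich ELISA after 4 h stimulation with LPS (200 ng/mL final). The cells were CD14-bead-purified monocytes from human PBMCs, 100 000 per well, exposed to 3-fold compound dilutions for 1 h at 37° C beforehand, with DMSO at 0.2%. Results are reported as percent inhibition.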

T3 sequence (Q9H0K1 whole entry): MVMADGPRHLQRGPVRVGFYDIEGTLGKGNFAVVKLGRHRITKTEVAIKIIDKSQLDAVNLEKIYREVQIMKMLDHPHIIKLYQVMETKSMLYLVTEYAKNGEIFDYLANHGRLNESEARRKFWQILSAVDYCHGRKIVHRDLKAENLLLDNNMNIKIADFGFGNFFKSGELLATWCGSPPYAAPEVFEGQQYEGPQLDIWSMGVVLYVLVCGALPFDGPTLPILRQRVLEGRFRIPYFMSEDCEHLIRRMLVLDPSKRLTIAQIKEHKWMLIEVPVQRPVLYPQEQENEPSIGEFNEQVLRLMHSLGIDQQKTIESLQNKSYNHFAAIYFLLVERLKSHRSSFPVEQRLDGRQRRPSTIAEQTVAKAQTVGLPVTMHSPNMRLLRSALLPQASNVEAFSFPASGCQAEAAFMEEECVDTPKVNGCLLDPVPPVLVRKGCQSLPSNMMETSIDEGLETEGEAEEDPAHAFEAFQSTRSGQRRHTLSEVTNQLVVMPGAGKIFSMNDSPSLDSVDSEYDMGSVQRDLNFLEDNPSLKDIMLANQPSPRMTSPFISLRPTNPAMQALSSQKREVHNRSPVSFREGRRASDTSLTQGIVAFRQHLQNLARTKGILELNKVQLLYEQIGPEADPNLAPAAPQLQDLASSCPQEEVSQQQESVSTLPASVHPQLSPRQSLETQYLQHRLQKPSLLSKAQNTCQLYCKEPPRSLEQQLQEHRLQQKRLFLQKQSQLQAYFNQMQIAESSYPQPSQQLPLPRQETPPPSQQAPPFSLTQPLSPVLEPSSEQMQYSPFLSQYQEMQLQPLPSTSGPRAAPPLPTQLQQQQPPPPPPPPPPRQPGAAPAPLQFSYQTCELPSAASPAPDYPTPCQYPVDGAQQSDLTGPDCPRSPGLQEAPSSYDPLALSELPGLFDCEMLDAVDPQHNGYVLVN
T2 sequence (Q9Y2K2 whole entry): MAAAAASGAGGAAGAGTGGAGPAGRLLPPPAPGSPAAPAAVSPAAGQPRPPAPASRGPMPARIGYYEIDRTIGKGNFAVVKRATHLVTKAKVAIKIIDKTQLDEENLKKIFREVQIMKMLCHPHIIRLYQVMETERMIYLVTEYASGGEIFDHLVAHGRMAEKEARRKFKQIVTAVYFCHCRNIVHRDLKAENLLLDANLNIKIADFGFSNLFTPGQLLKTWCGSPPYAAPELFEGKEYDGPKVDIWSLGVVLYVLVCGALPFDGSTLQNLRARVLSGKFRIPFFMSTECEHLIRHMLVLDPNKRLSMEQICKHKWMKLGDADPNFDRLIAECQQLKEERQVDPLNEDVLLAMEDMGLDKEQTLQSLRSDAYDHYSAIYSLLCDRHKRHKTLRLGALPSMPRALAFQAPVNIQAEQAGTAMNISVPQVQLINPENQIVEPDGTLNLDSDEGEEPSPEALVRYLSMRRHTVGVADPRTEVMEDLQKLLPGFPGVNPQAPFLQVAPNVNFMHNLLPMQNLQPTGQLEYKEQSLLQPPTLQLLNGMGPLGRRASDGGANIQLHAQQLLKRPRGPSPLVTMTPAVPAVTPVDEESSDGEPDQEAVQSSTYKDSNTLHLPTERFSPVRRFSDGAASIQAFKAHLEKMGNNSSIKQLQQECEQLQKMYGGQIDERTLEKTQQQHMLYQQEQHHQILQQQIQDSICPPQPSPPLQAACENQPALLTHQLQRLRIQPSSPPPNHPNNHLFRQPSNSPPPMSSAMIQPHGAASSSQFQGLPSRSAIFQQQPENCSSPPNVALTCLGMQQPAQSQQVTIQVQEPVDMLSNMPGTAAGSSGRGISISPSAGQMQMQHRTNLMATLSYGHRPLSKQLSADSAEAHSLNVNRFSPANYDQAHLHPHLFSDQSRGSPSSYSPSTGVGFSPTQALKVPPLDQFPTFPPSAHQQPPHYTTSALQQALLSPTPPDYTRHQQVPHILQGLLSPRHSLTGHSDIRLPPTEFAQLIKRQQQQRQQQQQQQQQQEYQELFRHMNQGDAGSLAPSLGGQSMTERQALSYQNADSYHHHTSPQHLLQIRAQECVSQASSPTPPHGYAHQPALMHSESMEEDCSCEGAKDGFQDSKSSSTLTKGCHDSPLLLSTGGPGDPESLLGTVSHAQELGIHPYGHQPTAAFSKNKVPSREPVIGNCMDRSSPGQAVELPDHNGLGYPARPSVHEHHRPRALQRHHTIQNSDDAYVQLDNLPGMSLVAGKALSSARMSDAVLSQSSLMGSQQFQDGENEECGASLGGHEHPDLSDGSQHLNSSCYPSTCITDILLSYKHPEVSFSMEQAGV
T1 sequence (P57059 whole entry): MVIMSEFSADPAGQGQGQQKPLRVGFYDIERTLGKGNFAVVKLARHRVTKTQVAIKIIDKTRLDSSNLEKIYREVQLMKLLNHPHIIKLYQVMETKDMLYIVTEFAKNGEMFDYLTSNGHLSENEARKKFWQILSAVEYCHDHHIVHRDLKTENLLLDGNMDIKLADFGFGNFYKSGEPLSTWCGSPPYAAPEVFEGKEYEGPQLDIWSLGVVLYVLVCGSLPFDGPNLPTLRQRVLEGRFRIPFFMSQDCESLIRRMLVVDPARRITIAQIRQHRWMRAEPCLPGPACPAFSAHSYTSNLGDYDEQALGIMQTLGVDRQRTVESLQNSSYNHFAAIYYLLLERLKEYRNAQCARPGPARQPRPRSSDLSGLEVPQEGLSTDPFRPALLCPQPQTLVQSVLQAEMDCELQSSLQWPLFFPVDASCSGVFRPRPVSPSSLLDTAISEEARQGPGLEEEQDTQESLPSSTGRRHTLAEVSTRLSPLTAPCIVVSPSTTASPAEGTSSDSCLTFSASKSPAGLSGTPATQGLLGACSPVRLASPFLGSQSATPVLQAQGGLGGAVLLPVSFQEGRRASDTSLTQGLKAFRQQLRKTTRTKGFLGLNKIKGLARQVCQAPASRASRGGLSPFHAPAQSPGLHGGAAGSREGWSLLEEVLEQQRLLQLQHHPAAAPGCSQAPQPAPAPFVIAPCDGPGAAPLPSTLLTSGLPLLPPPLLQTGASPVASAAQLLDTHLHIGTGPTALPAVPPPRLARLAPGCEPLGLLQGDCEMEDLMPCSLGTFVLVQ

Row | Compound | IC50 [1] [nM] | EC50 [2] [nM] | IC50 [3] [nM] | IC50 [6] [nM] | EC50 ([8]; 4 h) [nM] | IL-10 [4] | TNFα [5] | IL-10 FCmax median [7] | EC50 [8] [nM]
1 | CCOC(=O)C1(c2ccccc2)CCN(CCCOc2ccn3c(-c4cc(OC)c(C(=O)NC5CC5)c(OC(F)F)c4)cnc3c2)CC1 [compound 378, ethyl 1-[3-[3-[4-(cyclopropylcarbamoyl)-3-(difluoromethoxy)-5-methoxy-phenyl]imidazo[1,2-a]pyridin-7-yl]oxypropyl]-4-phenyl-piperidine-4-carboxylate] | 10 to 100 |  | 0.01 to 10 | 0.01 to 10 |  |  |  | ++ (>1.5-4.5) | 0.1 to 100
2 | CCOC(=O)CN1[C@@H]2CC[C@H]1CC(Oc1ccn3c(-c4cc(OC)c(C(=O)NC5CC5)c(OC(F)F)c4)cnc3c1)C2 (stereo partly drawn) [compound 272, ethyl 2-[(1R,5S)-3-[3-[4-(cyclopropylcarbamoyl)-3-(difluoromethoxy)-5-methoxy-phenyl]imidazo[1,2-a]pyridin-7-yl]oxy-8-azabicyclo[3.2.1]octan-8-yl]acetate] | 100 to 500 |  | 10 to 100 | 10 to 100 |  |  |  | +++ (>4.5) | 0.1 to 100
3 | COc1cc(-c2cnc3cc(OC[C@@H]4CCCNC4)ccn23)cc(OC(F)F)c1C(=O)NC1CC1 [Cpd 335, N-cyclopropyl-2-(difluoromethoxy)-6-methoxy-4-[7-[[(3R)-3-piperidyl]methoxy]imidazo[1,2-a]pyridin-3-yl]benzamide] | 10 to 100 |  | 0.01 to 10 | 0.01 to 10 | 100 to 1000 |  |  | +++ (>4.5) | 
4 | CCOC(=O)C1CCN(CCCOc2ccn3c(-c4cc(OC)c(C(=O)NC5CC5)c(OC(F)F)c4)cnc3c2)CC1 [compound 377, ethyl 1-[3-[3-[4-(cyclopropylcarbamoyl)-3-(difluoromethoxy)-5-methoxy-phenyl]imidazo[1,2-a]pyridin-7-yl]oxypropyl]piperidine-4-carboxylate] | 10 to 100 |  | 0.01 to 10 | 0.01 to 10 | 0.1 to 100 |  |  | ++ (>1.5-4.5) | 
5 | COc1cc(-c2cnc3cc(OCCCN4CCC(O)C4)ccn23)cc(OC(F)F)c1C(=O)NC1CC1 (stereo not drawn) [compound 319, N-cyclopropyl-2-(difluoromethoxy)-4-[7-[3-(3-hydroxypyrrolidin-1-yl)propoxy]imidazo[1,2-a]pyridin-3-yl]-6-methoxy-benzamide] | 10 to 100 |  | 0.01 to 10 | 0.01 to 10 | 100 to 1000 |  |  | ++ (>1.5-4.5) | 
6 | CCOC(=O)C1(O)CCN(CC(O)COc2ccn3c(-c4cc(OC)c(C(=O)NC5CC5)c(OC(F)F)c4)cnc3c2)CC1 (stereo not drawn) [compound 383, ethyl 1-[3-[3-[4-(cyclopropylcarbamoyl)-3-(difluoromethoxy)-5-methoxy-phenyl]imidazo[1,2-a]pyridin-7-yl]oxy-2-hydroxy-propyl]-4-hydroxy-piperidine-4-carboxylate] | 10 to 100 |  | 0.01 to 10 | 0.01 to 10 | 100 to 1000 |  |  | ++ (>1.5-4.5) | 
7 | COc1cc(-c2cnc3cc(OCCCN4CCC45CCC5)ccn23)cc(OC(F)F)c1C(=O)NC1CC1 [compound 302, 4-[7-[3-(1-azaspiro[3.3]heptan-1-yl)propoxy]imidazo[1,2-a]pyridin-3-yl]-N-cyclopropyl-2-(difluoromethoxy)-6-methoxy-benzamide] | 10 to 100 |  | 0.01 to 10 | 0.01 to 10 | 0.1 to 100 |  |  | +++ (>4.5) | 

Continued, in another order:

Row | IC50 [1] [nM] | EC50 [2] [nM] | IC50 [3] [nM] | IC50 [6] [nM] | EC50 ([8]; 4 h) [nM] | Compound | IL-10 [4] | TNFα [5] | IL-10 FCmax median [7] | EC50 [8] [nM]
8 | 10 to 100 | 0.1 to 100 | 0.01 to 10 | 0.01 to 10 |  | COc1cc(-c2cnc3cc(OCCCN4CCCCC4)ccn23)cc(OC(F)F)c1C(=O)NC1CC1 [compound 16, N-cyclopropyl-2-(difluoromethoxy)-6-methoxy-4-[7-[3-(1-piperidyl)propoxy]imidazo [1,2-a]pyridin-3-yl]benzamide] | − | − |  | 
9 | 10 to 100 |  | 0.01 to 10 | 0.01 to 10 | 100 to 1000 | COc1cc(-c2cnc3cc(OC[C@@H]4CCCN(CCO)C4)ccn23)cc(OC(F)F)c1C(=O)NC1CC1 [Cpd 370, N-cyclopropyl-2-(difluoromethoxy)-4-[7-[[(3R)-1-(2-hydroxyethyl)-3-piperidyl]methoxy]imidazo [1,2-a]pyridin-3-yl]-6-methoxy-benzamide] |  |  | ++ (>1.5-4.5) | 
10 | 10 to 100 |  | 0.01 to 10 | 0.01 to 10 | 0.1 to 100 | COc1cc(-c2cnc3cc(OCCCN4CC(O)(C(F)(F)F)C4)ccn23)cc(OC(F)F)c1C(=O)NC1CC1 [compound 348, N-cyclopropyl-2-(difluoromethoxy)-4-[7-[3-[3-hydroxy-3-(trifluoromethyl)azetidin-1-yl]propoxy]imidazo[1,2-a]pyridin-3-yl]-6-methoxy-benzamide] |  |  | ++ (>1.5-4.5) | 
11 | 0.01 to 10 |  | 0.01 to 10 | 0.01 to 10 | 0.1 to 100 | COc1cc(-c2cnc3cc(OCCCN4CCOCC45CCC5)ccn23)cc(OC(F)F)c1C(=O)NC1CC1 [compound 281, N-cyclopropyl-2-(difluoromethoxy)-6-methoxy-4-[7-[3-(8-oxa-5-azaspiro[3.5]nonan-5-yl)propoxy]imidazo[1,2-a]pyridin-3-yl]benzamide] |  |  | +++ (>4.5) | 
12 | 10 to 100 |  | 0.01 to 10 | 0.01 to 10 | 0.1 to 100 | COc1cc(-c2cnc3cc(OCCC4CCCN4C4COC4)ccn23)cc(OC(F)F)c1C(=O)NC1CC1 (stereo not drawn) [compound 299, N-cyclopropyl-2-(difluoromethoxy)-6-methoxy-4-[7-[2-[1-(oxetan-3-yl)pyrrolidin-2-yl]ethoxy]imidazo[1,2-a]pyridin-3-yl]benzamide] |  |  | +++ (>4.5) | 
13 | 10 to 100 |  | 0.01 to 10 | 0.01 to 10 | 100 to 1000 | COc1cc(-c2cnc3cc(OCC(O)CN4CCS(=O)(=O)CC4)ccn23)cc(OC(F)F)c1C(=O)NC1CC1 (stereo not drawn) [compound 374, N-cyclopropyl-2-(difluoromethoxy)-4-[7-[3-(1,1-dioxo-1,4-thiazinan-4-yl)-2-hydroxy-propoxy]imidazo[1,2-a]pyridin-3-yl]-6-methoxy-benzamide] |  |  | +++ (>4.5) | 

From patent US12264156B2, “Compounds and pharmaceutical compositions thereof for the treatment of diseases” (GALAPAGOS NV, priority 2018, dated 2025)
